Results on one molecule are retold here after patent publication US20240245800A1, “HIGHLY SPECIFIC RABBIT SINGLE -DOMAIN ANTIBODIES FOR DRUG DELIVERY IN IMMUNOTHERAPY APPLICATIONS” (TECHNOPHAGE, INVESTIGAÇÃO E DESENVOLVIMENTO EM …, priority 2021, published 2024).

In one data set the test system is LN229 cell line. Put plainly: BEB-glioblastoma (BEB-GBM) in vitro model: LN229 viability. It is filed as cell-based. Also noted: dose or concentration left out as unconfirmed. Conditions: PAN free added to apex, 24 h. As for the experimental part: FIG. 18. Activity of liposomal drug delivery in the BEB-Glioblastoma model, wherein an in vitro BEB-GBM model was developed to mimic the complexity of drug delivery to a brain tumour. This model combined a monolayer of bEnd.3, as the BBB barrier, and the LN229 cell line at the base as the glioblastoma tumour.
FIG. 18B. PAN encapsulated RG3 and FC5 functionalized liposomes were analysed in terms of BEB translocation and delivery of PAN to a glioblastoma cell line and compared with non-functionalized unloaded liposomes (Control). […] The cytotoxic effect of PAN in LN229 was determined by adding WST-1 reagent. The values were obtained from duplicates of two independent experiments ([…]).

Protocol for bEnd.3: The integrity of the bEnd.3 was measured by determining the translocation of the FD40 fluorescent probe while LN229 viability was determined using WST-1 reagent and OD450 nm measurement following 24 h incubation, and
The in vitro BEB models were optimized based on previous studies [45]. Briefly, bEnd.3 cells were cultured in DMEM, supplemented with 10% FBS and 1% penicillin/streptomycin (Lonza, Basel, Switzerland) antibiotic solution. Cells were cultured in a humidified atmosphere of 5% CO2 at 37° C. and the medium changed every other day. […] Samples were recovered from the apex and base and fluorescence intensity was measured in a microtiter plate reader (BMG Labtech, Fluostar OPTIMA, Ortenberg, Germany) with an excitation of 485 nm and a maximum emission at 520 nm.
To study the BEB translocation efficiency of the Lip-PAN-RG3 and Lip-PAN-FC5 liposomes and subsequent drug delivery and cytotoxic activity of PAN in a glioblastoma cell line, a dual in vitro non-contact co-culture model was established with bEnd.3 and LN229 cells. […] Following the 24 h treatment, WST-1 was added to the plate, and O.D.450 nm was measured following 24 h incubation. Each data point was determined using three replicate wells and two independent experiments were carried out in different days. […] In parallel, the integrity of the BEB model was measured as described previously.

`Cc1[nH]c2ccccc2c1CCNCc1ccc(/C=C/C(=O)NO)cc1` [PAN, panobinostat]: the “effect on BEB integrity in BEB-GBM model” value with bEnd.3 was “no significant effect”. Further, in the data set with LN229 cell line, the “effect on LN229 viability in BEB-GBM model” value is on record as “no significant effect”.
